# Measurements from paper PMC5787466, “Accelerated bottom-up drug design platform enables the discovery of novel stearoyl-CoA desaturase 1 inhibitors for cancer therapy” (Oncotarget, 2017).
# Read-outs that look alike come from different tables or passages of the source.
# How the values were obtained:
# A498 = test: Proliferation dose-response IC50, A498; assay type: cell-based; conditions: Homo sapiens, proliferative IC50, linear regression modeling of dose-response
# Procedure: Error bars indicate standard deviation for n=2 replicates. […] To evaluate inhibition of SCD1 by these molecules, we used LC/MS to quantify changes in SCD1-catalyzed conversion of stearoyl-CoA to oleoyl-CoA in response to drug treatments in vitro using SCD1 protein extracted from murine liver (Figure 3c, Supplementary Figure 2g). […] Synthesis routes and spectral data including NMR and MS are also provided (Supplementary Figures 3-6).
# Cells were seeded at 5,000 cells/well in clear-bottom 96-well plates in triplicate. Drug treatment was applied at 1:1000 in reduced serum conditions (3%). […] Alternatively, cells were plated 2x10^5/well in 12-well plates (Genesee Scientific) in triplicate prior to drug treatment. After 120-hour treatment, cell number was established using a Coulter Particle Counter (Beckman). Oleic acid-albumin (Sigma Aldrich) was added to media at 5µM, and was applied adjuvant to drug treatment. Drug stocks were prepared in DMSO (Sigma) at 1000x. IC50 dosing per cell line was calculated using CalcuSyn analytical software.
# 468 known kinases = test: Kinome scan (binding)
# From the text: Induction of the unfolded protein response (UPR) is a known biological response to SCD1 inhibition in tumor cells. […] The addition of exogenous OA was sufficient to reverse the activation of ATF6 (Figure 4b). Moreover, exogenous OA inhibited SSI-(1-4) mediated upregulation of the UPR markers BiP (heat shock 70 kDa protein) and CHOP (damage inducible transcript 3) protein levels in both A498 and ACHN cells (Figure 4c). Collectively these findings confirm that SSI-(1-4) reliably recapitulates the biological responses observed in tumor cells treated with known SCD1 inhibitors. […] Thus, SSI-4 is not predicted to have any major off-target effects through kinase inhibition (Supplementary Figures 7 and 8). […]
# of PLS factors. T-value filter (t-value < 2.0) was used to eliminate independent variables overly sensitive to incremental changes from the training set. For structural components, both atom-based and pharmacophore features based were examined.
# The regression with m PLS factors, fitted to activities is given as: […]
# i =1 , where m = number of PLS factors, b is regression coefficient, vector y represents activity values in the training set. […]
# A final Z-filtering mechanism was applied to reduce the dataset to a few select compounds for synthesis and experimental screening by using combined normalized scoring. The final Z-score for each compound was determined as: […]
# [1] = test system: ACHN ccRCC pulmonary metastasis; test: ACHN pulmonary metastasis model; assay type: in vivo, athymic nude mice; conditions: 180 mg/kg in chow, 28 days
# Procedure: SCD1 expression correlates with poor cancer patient outcomes as evidenced by decreased survival in multiple cancers including gastric, lung, ovarian and renal cell carcinoma (Figure 5a-5b, Supplementary Figure 9a-9b). […] Our findings in thyroid carcinoma similarly present discordancy between tumor response to SCD1 inhibitors and SCD1 expression. SSI-4 was tested in vivo for anti-tumorigenic activity.
# Figure 5 SSI-4 attenuates tumor progression Kaplan Meier survival analysis of indicated subtypes of (a) gastric and (b) lung cancer patients sorted into high versus low SCD1 mRNA expression, for multiple disease subtypes. Patient risk assessment at indicated mean follow-up is shown. […] (h) Tumor burden of ACHN pulmonary metastasis in response to SSI-4 treatment (180mg/kg) measured by ex vivo bioluminescent flux, given in photons/second (n=5 per group). ([…]) Tumor burden of ACHN pulmonary metastasis as determined by H&E staining of lungs from (h).
# ACHN cells were infected with pSIN Luc Ub Emerald GFP lentivirus construct, a kind gift from Dr. Yasuhiro Ikeda (Mayo Clinic). […] Lesion width was calculated as the mean of all nodules measured (7-12 per mouse), identified by H&E staining.
# A498 cells were injected subcutaneously in the flank of athymic nude mice at 1x10^6/mouse. […] Tumor burden was measured using calipers. […]
# [2] = Pharmacokinetics after oral (PO) and intravenous (IV) administration, serum; assay type: in vivo, rat; conditions: male, C57BL/6, mouse; for bioavailability: absolute, from AUC0-last and nominal dose; for Cmax / half-life: po
# Procedure: (e) Maximum serum concentration (Cmax) of SSI-4 before the administration of a second dose. (f) AUC curve to infinite time. (g) Summary of pharmacokinetics for SSI-4, where absolute bioavailability (%) is quantitated with AUC0-last and nominal dose.
# Pharmacokinetic assessment was performed for SSI-4 administered to fasted male C57BL/6 mice either intravenously (IV) or by oral gavage (PO) in DMSO:PEG400:water (10:70:20) as a clear solution at 5 mg/mL (IV dosing), and 1,3 or 10 mg/mL (respectively for the PO dosing). Serum analysis was performed by LC-MS-MS.
compound,measurement,setting,value
CNC(=O)c1ccnc(NC(=O)N2CCC(Oc3ccccc3Cl)CC2)c1 [SSI-4],IC50,A498,0.009 µM
same,number of 403 non-mutant kinases bound,468 known kinases; 10 nM,none
same,number of 403 non-mutant kinases bound,"468 known kinases; 100 nM, the kinase bound is CDKL2",1
same,pulmonary metastasis formation of ACHN ccRCC,[1],reduced
same,bioavailability,[2]; oral 10 mg/kg,119%
same,bioavailability,[2]; oral 30 mg/kg,152%
same,bioavailability,[2]; oral 100 mg/kg,212%
same,AUC,"[2]; oral, 10 mg/kg",20900 ng·h/mL
same,AUC,"[2]; oral, 30 mg/kg",71200 ng·h/mL
same,AUC,"[2]; oral, 100 mg/kg",336000 ng·h/mL
same,Cmax,[2]; 10 mg/kg,~4320 ng/mL
same,half-life,"[2]; 10 mg/kg, oral, 10 mg/kg, read-out: T1/2 (converted)",3.48 h
same,Cmax,[2]; 30 mg/kg,~15900 ng/mL
same,half-life,"[2]; 30 mg/kg, oral, 30 mg/kg, read-out: T1/2 (converted)",2.71 h
same,Cmax,[2]; 100 mg/kg,~43300 ng/mL
same,half-life,"[2]; 100 mg/kg, oral, 100 mg/kg, read-out: T1/2 (converted)",3.94 h
same,half-life,"[2]; 100 mg/kg, range over the oral doses 10, 30, 100 mg/kg, read-out: median serum terminal half-life (T1/2)",2.71 to 3.94 h
